Drawing on ChEMBL document CHEMBL3991601, “The target landscape of clinical kinase drugs” (Science, 2017), this text covers Kd for nine molecules.

For assay [1], the target named is T1, Bifunctional phosphoribosylaminoimidazole carboxylase/phosphoribosylaminoimidazole succinocarboxamide synthetase (Homo sapiens, UniProt P22234).
T1 sequence (P22234 whole entry): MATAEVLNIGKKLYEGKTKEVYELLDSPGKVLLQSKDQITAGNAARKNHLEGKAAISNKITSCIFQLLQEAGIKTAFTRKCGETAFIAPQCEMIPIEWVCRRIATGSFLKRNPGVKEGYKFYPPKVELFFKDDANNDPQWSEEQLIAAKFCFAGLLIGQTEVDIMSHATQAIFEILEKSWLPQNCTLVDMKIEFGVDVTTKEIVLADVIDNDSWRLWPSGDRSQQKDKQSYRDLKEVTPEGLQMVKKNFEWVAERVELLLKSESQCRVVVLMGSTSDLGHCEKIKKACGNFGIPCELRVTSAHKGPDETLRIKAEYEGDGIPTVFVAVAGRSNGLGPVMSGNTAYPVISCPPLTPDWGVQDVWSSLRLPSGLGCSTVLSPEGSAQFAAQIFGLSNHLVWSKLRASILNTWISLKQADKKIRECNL

A further assay concerns the target T2, ADP/ATP translocase 2 (Homo sapiens, UniProt P05141).
T2 sequence (P05141 whole entry): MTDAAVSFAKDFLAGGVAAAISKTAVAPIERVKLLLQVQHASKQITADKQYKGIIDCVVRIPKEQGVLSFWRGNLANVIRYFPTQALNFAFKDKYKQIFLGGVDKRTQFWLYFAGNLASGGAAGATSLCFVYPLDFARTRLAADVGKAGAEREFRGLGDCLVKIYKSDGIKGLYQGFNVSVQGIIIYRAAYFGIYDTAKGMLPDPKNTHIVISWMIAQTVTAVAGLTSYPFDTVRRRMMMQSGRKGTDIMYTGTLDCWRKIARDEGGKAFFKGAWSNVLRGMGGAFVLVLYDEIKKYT

Assay [2] deals with Cyclin-dependent kinase 5 (Homo sapiens, UniProt Q00535).
Chain of Cyclin-dependent kinase 5 (Q00535 whole entry): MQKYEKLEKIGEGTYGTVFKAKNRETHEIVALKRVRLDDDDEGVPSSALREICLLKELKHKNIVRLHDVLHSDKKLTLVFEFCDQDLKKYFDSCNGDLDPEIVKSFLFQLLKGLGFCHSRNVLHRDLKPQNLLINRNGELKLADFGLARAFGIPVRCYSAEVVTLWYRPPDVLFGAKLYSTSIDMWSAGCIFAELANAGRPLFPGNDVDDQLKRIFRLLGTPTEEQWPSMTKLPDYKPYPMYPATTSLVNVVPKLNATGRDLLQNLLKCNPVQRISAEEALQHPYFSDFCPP
For assay [3], the target named is T3, ATP-dependent RNA helicase DHX30 (Homo sapiens, UniProt Q7L2E3).
T3 sequence (Q7L2E3 whole entry): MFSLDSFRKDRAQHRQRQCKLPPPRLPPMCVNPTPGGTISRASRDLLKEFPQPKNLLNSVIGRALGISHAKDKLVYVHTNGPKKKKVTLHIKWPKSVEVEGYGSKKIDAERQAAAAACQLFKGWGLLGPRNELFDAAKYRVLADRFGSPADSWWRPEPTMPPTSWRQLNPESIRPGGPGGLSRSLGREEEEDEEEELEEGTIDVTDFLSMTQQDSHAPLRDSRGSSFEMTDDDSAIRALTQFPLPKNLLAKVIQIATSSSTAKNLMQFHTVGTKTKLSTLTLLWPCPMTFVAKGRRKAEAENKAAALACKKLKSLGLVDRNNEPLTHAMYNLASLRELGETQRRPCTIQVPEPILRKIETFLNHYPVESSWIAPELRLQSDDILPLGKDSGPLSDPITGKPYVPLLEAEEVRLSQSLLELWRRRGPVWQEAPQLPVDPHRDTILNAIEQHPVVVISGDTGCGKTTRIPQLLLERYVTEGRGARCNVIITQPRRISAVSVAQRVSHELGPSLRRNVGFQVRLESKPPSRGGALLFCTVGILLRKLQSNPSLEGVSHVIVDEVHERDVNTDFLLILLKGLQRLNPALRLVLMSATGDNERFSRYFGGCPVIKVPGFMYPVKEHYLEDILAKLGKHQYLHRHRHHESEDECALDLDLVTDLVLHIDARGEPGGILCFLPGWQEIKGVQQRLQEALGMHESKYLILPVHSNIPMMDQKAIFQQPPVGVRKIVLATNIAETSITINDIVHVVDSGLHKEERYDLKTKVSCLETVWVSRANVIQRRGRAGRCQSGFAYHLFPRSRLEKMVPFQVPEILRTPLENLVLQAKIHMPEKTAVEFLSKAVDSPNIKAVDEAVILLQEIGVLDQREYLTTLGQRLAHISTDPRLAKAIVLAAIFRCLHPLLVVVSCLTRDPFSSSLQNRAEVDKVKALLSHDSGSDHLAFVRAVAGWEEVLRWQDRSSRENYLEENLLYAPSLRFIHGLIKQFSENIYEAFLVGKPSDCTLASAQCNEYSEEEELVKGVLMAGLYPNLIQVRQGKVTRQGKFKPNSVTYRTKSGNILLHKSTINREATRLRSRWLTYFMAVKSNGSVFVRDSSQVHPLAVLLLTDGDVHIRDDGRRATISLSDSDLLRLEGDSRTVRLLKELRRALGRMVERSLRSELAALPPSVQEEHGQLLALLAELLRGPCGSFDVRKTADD

A further assay has as its target Insulin receptor (Homo sapiens, UniProt P06213).
The target of assay [4] is Epithelial discoidin domain-containing receptor 1 (Homo sapiens, UniProt Q08345).
The target in assay [5] is Tyrosine-protein kinase Fer (Homo sapiens, UniProt P16591).
Assay [6] addresses T4, Ferrochelatase, mitochondrial (Homo sapiens, UniProt P22830).
T4 sequence (P22830 whole entry): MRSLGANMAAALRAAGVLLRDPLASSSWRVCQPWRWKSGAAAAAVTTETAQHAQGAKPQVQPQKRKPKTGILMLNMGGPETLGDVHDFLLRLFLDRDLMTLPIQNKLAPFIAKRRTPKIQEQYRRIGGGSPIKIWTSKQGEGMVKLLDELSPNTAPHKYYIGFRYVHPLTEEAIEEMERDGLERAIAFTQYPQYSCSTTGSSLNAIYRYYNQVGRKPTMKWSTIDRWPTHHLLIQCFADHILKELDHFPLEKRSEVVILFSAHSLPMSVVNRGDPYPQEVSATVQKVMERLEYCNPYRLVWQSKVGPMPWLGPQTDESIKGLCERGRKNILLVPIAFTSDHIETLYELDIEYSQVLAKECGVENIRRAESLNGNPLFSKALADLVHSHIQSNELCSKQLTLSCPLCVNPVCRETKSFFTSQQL

Assay [7] concerns the target Bone morphogenetic protein receptor type-1B (Homo sapiens, UniProt O00238).
Assay [8] has as its target Ribosomal protein S6 kinase alpha-4 (Homo sapiens, UniProt O75676).
Assay [9] deals with Proto-oncogene tyrosine-protein kinase receptor Ret (Homo sapiens, UniProt P07949).
Assay [10] has as its target Serine/threonine-protein kinase N1 (Homo sapiens, UniProt Q16512).
Assay [11] addresses G protein-coupled receptor kinase 6 (Homo sapiens, UniProt P43250).

Activity calls are given as the source filed them. For most assays here, no stated cut-off is given here; in the data, actives have a measured Kd and inactives only a lower limit.

Chain of G protein-coupled receptor kinase 6 (P43250 whole entry): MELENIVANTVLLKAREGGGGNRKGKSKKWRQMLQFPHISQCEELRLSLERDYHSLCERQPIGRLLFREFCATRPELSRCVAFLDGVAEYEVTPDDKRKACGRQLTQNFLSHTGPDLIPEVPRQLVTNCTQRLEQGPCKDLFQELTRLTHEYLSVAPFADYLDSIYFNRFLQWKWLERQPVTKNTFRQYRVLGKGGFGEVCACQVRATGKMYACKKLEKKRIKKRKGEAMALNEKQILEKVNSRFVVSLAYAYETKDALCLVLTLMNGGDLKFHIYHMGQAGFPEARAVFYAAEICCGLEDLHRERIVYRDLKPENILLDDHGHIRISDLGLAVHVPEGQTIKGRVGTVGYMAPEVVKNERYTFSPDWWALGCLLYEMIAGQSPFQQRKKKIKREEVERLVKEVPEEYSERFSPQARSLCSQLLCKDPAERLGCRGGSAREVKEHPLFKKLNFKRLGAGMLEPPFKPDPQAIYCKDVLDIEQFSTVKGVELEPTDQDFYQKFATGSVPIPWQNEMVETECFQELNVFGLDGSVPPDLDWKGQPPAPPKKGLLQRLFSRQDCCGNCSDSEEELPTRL
Chain of Ribosomal protein S6 kinase alpha-4 (O75676 whole entry): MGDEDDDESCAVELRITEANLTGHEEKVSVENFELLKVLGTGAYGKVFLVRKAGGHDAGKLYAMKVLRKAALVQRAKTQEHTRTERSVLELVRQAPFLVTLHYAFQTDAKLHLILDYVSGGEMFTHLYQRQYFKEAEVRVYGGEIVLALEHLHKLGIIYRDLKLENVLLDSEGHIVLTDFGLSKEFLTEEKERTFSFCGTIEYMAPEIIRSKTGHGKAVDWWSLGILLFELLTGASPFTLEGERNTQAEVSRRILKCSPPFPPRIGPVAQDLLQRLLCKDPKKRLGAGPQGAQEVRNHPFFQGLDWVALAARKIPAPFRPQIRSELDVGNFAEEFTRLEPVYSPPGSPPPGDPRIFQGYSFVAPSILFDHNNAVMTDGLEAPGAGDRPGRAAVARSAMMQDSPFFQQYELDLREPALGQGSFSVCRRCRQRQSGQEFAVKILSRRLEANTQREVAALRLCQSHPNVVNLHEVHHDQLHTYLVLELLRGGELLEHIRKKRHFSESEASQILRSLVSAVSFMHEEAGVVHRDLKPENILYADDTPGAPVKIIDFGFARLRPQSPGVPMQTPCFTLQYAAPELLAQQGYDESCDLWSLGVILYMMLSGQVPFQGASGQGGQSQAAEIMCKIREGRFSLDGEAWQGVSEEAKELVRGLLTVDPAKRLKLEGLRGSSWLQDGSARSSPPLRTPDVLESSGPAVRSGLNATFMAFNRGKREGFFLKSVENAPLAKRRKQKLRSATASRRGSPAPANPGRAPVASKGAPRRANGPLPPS
Chain of Bone morphogenetic protein receptor type-1B (O00238 whole entry): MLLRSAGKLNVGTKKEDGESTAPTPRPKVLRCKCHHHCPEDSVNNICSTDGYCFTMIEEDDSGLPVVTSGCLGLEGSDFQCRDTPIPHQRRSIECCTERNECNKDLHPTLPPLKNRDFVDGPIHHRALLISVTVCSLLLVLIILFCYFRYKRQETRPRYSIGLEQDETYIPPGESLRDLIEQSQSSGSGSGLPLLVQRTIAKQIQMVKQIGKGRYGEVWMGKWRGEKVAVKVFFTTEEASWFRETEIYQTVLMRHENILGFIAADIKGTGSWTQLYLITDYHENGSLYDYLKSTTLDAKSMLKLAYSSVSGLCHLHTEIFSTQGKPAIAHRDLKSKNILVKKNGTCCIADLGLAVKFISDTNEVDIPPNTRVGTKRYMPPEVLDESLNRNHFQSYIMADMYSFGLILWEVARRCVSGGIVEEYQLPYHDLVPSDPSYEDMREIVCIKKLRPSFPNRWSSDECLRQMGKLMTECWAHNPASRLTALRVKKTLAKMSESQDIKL
Chain of Serine/threonine-protein kinase N1 (Q16512 whole entry): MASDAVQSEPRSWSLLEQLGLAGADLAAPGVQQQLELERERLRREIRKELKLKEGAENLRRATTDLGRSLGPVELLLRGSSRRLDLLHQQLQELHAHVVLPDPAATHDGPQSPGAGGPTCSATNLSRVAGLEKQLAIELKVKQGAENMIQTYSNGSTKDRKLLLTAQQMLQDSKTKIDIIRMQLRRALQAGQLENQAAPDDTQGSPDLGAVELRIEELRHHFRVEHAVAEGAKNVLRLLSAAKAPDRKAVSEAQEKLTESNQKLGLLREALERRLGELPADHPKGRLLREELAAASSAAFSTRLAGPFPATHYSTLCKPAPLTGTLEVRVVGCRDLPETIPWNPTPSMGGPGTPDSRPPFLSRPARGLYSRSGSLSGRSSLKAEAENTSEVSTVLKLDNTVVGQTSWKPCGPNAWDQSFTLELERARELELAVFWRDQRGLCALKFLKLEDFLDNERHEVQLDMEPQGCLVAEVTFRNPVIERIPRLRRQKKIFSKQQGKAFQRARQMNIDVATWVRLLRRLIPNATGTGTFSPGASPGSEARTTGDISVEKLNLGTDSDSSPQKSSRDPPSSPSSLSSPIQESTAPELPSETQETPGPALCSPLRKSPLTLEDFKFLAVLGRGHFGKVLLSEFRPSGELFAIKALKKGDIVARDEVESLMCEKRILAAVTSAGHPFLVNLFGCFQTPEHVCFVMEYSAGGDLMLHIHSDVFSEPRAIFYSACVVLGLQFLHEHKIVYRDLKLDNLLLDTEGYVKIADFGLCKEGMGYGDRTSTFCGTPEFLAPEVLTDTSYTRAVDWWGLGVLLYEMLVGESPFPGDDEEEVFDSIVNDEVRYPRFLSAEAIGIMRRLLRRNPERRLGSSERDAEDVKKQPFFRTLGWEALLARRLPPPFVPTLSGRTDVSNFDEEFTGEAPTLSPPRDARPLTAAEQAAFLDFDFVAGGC
Chain of Insulin receptor (P06213 28-758 limits assumed): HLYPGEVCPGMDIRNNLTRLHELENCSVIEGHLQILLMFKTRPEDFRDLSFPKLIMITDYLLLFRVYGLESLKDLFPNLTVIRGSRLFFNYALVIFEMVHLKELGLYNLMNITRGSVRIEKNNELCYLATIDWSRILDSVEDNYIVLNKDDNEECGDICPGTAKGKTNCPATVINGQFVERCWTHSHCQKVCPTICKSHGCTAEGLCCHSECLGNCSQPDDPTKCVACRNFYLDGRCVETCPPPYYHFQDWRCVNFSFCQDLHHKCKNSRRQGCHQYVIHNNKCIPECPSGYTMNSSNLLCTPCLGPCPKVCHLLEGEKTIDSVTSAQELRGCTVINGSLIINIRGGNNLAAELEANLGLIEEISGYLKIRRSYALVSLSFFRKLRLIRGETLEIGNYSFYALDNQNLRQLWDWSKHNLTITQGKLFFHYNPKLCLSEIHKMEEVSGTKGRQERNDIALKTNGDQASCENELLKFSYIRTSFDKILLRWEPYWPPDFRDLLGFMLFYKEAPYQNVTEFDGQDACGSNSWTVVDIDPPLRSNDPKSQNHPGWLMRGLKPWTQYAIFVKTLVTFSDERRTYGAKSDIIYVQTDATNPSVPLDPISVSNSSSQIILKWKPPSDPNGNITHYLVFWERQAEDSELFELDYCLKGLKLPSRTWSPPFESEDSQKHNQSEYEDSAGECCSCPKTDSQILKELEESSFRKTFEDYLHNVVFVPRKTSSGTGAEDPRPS
Chain of Insulin receptor (P06213 763-1382 limits assumed): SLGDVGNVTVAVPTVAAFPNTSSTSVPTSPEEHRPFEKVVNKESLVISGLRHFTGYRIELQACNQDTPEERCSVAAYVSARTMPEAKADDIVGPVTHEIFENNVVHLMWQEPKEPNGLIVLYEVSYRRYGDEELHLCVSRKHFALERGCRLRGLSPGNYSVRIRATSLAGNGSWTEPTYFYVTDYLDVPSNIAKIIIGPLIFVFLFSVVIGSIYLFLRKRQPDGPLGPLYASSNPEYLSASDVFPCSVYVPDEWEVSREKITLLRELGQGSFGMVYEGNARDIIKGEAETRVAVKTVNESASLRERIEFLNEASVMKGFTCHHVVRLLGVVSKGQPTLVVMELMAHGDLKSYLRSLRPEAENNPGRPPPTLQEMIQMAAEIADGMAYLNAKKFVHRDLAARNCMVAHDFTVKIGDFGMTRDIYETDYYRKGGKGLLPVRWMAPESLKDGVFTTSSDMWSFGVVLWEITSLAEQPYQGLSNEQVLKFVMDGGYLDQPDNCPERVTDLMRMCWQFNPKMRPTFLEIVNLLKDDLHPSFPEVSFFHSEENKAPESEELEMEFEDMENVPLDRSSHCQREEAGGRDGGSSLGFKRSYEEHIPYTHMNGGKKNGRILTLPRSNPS

With `Cc1nc2cc(-c3nn(C(C)C)c4ncnc(N)c34)ccc2o1`, the Kd is > 30 µM (inactive) in assay [1]; > 30 µM (inactive) at ADP/ATP translocase 2; > 30 µM (inactive) in assay [2]; > 30 µM (inactive) in assay [3]; > 30 µM (inactive) on Insulin receptor; 0.881 µM (active) in assay [4]. Further, the Kd was > 30 µM (inactive) in assay [5]; > 30 µM (inactive) in [6]; 0.123 µM (active) in assay [7]; > 30 µM (inactive) in [8]; 1.6 µM (active) in assay [9]; > 30 µM (inactive) in assay [10]. Also, in assay [11], the Kd was > 30 µM (inactive).

For `COCc1c(-c2ccc(NC(=O)Nc3cc(C(F)(F)F)ccc3F)c(F)c2)c2c(N)ncnn2c1CN1CCOCC1`, the Kd in assay [1] was > 30 µM (inactive); at ADP/ATP translocase 2, > 30 µM (inactive); in assay [2], > 30 µM (inactive); in assay [3] it was > 30 µM (inactive); on Insulin receptor it was > 30 µM (inactive); in [4], 0.314 µM (active). In addition, the Kd in [5] was > 30 µM (inactive); in assay [6] it was > 30 µM (inactive); in [7], > 30 µM (inactive); in [8], > 30 µM (inactive); in [9], 0.093 µM (active); in assay [10], > 30 µM (inactive). In addition, the Kd in assay [11] is > 30 µM (inactive).

Take `Nc1ncnc2c1c(-c1cccc(OCc3ccccc3)c1)cn2[C@H]1C[C@@H](CN2CCC2)C1` [AEW-541]: the Kd in assay [1] was > 30 µM (inactive); on ADP/ATP translocase 2, > 30 µM (inactive); in [2], > 30 µM (inactive); in assay [3] it was > 30 µM (inactive); on Insulin receptor, 4.04 µM (active); in assay [4], > 30 µM (inactive). The Kd in [5] was > 30 µM (inactive); in assay [6], 6.5 µM (active); in [7] it was 1.44 µM (active); in assay [8], > 30 µM (inactive); in [9] it was 23.2 µM (active); in [10], > 30 µM (inactive). The Kd in assay [11] was > 30 µM (inactive).

Take `C=CC(=O)Nc1cc2c(Nc3ccc(F)c(Cl)c3)ncnc2cc1C#CC(C)(C)N1CCN(C)CC1` [AV-412 FREE BASE]: the Kd (in [1]; on ADP/ATP translocase 2; in assay [2]; in assay [3]; on Insulin receptor; in assay [4]) was > 30 µM (inactive) each time. For the same molecule, the Kd in assay [5], in assay [6], in [7], in assay [8], in [9] and in assay [10] was > 30 µM (inactive) each time. The Kd in [11] was > 30 µM (inactive).

As to `Cc1cc(C(=O)NOCCO)c(Nc2ccc(I)cc2F)n(C)c1=O` [AZD-8330], the Kd (in assay [1]; at ADP/ATP translocase 2; in [2]; in assay [3]; on Insulin receptor; in [4]) was > 30 µM (inactive) in each case. Also, the Kd in assay [5], in assay [6], in assay [7], in [8], in [9] and in assay [10] was > 30 µM (inactive) throughout. Besides, in assay [11], the Kd was > 30 µM (inactive).

Turning to `Cc1cc(Nc2ncc(Cl)c(Nc3ccccc3S(=O)(=O)C(C)C)n2)c(OC(C)C)cc1C1CCNCC1` [CERITINIB], the Kd in assay [1] was > 30 µM (inactive); at ADP/ATP translocase 2 it was > 30 µM (inactive); in [2], > 30 µM (inactive); in assay [3], > 30 µM (inactive); in [4], > 30 µM (inactive); in assay [5], 0.214 µM (active). Further, the Kd in [6], in [7], in assay [8], in assay [10] and in assay [11] was > 30 µM (inactive) in each case.

Turning to `C#Cc1cccc(Nc2ncnc3cc(OC)c(OCCCCCCC(=O)NO)cc23)c1` [CUDC-101], the Kd (in assay [1]; at ADP/ATP translocase 2; in assay [2]; in [3]; on Insulin receptor; in assay [4]) was > 30 µM (inactive) each time. The Kd in [5] was > 30 µM (inactive); in [6], 2.87 µM (active); in assay [7] it was > 30 µM (inactive); in assay [8] it was > 30 µM (inactive); in assay [10] it was > 30 µM (inactive); in [11] it was > 30 µM (inactive).

`CCn1cc(-c2ccnc3[nH]c(-c4cccc(CN(C)C)c4)cc23)c(-c2ccc(NC(=O)N(C)C)cc2)n1` [GSK-1070916]: the Kd in assay [1] is > 30 µM (inactive); at ADP/ATP translocase 2 it was > 30 µM (inactive); in assay [2], > 30 µM (inactive); in assay [3], > 30 µM (inactive); in [4], 0.008 µM (active); in assay [5], > 30 µM (inactive). Besides, the equilibrium dissociation constant (Kd) in [6] was 2.41 µM (active); in [8], > 30 µM (inactive); in assay [9] it was 0.067 µM (active); in [10], > 30 µM (inactive); in [11], > 30 µM (inactive).

For `CC(C)c1cc(CNc2nc(Nc3cc(C4CC4)[nH]n3)cc(N3CCN(C)CC3)n2)on1` [XL-228], the Kd in assay [1] was > 30 µM (inactive); on ADP/ATP translocase 2, > 30 µM (inactive); in [2], > 30 µM (inactive); in [3], > 30 µM (inactive); at Insulin receptor it was 0.144 µM (active); in [5], 0.105 µM (active). The Kd in assay [6] was > 30 µM (inactive); in [8], > 30 µM (inactive); in assay [9], 0.009 µM (active); in assay [10] it was 0.011 µM (active); in assay [11], > 30 µM (inactive).

Usually Kd stands for the constant that tells how readily two partners part at equilibrium.
